Laboratory results: patent publication US20120178766A1, “FUROPYRIMIDINEDIONE DERIVATIVES AS TRPAI MODULATORS” (priority 2009, published 2012)

Key:
[1] = biological target: T1, rat TRPA1 (Rattus norvegicus, UniProt Q6RI86); assay: 45Calcium uptake assay: inhibition of AITC induced cellular uptake of radioactive calcium, rat TRPA1 expressing CHO cells; format: cell-based; settings: AITC 10 μM; for inhibition at 10 µM: 10.0 μM compound, read-out: rat TRPA1 Percentage inhibition at 10.0 μM; for inhibition at 1 µM: read-out: rat TRPA1 Percentage inhibition; for IC50: class symbols
T1 construct: expressed in transfected cells; host or cells: CHO cells (Zeocin selection)
Description: (§1) Screening for TRPA1 Antagonist Using the ^45Calcium Uptake Assay:
(§2) The inhibition of TRPA1 receptor activation was measured as inhibition of allyl isothiocyanate (AITC) induced cellular uptake of radioactive calcium.
Test compounds were dissolved in 100% DMSO to prepare 10 mM stock and then diluted using plain medium with 0.1% BSA and 1.8 mM CaCl2 to get the desired concentration. The final concentration of DMSO in the reaction was 0.5% (v/v). […] Rat TRPA1 expressing CHO cells were grown in F-12 DMEM medium with 10% FBS, 1% penicillin-streptomycin solution, and 400 μg/ml of Zeocin. […] Cells were treated with the test compounds for 10 minutes followed by the addition of AITC at a final concentration of 30 μM (for human TRPA1) and/or 10 μM (for rat TRPA1) and 5 μCi/ml ^45Ca^+2 for 3 minutes. Cells were washed and lysed using a buffer containing 1% Triton X-100, 0.1% deoxycholate and 0.1% SDS. Radioactivity in the lysate was measured in a Packard TopCount after addition of liquid scintillant.
(§3) Concentration response curves were plotted as a % of maximal response obtained in the absence of test antagonist. IC50 values can be calculated from concentration response curve by nonlinear regression analysis using GraphPad PRISM software.

[2] = biological target: T2, human TRPA1 (Homo sapiens, UniProt O75762); assay: 45Calcium uptake assay: inhibition of AITC induced cellular uptake of radioactive calcium, human TRPA1 expressing CHO cells; format: cell-based; settings: AITC 30 μM; for inhibition at 1 µM: 1.0 μM compound, read-out: human TRPA1 Percentage inhibition at 1.0 μM; for inhibition at 10 µM: 10.0 μM compound, read-out: human TRPA1 Percentage inhibition at 10.0 μM; for IC50: class symbols
T2 construct: expressed in transfected cells; host or cells: CHO cells (G-418 selection)
Text: The illustrative examples of the present invention are screened for TRPA1 activity according to a modified procedure described in (a) Tóth, A. et al. Life Sciences, 2003, 73, 487-498. (b) McNamara C, R. et al, Proc. Natl. Acad. Sci. U.S.A., 2007, 104, 13525-13530. The screening of the compounds can be carried out by other methods and procedures known to persons skilled in the art.
as §1, §2
Test compounds were dissolved in 100% DMSO to prepare 10 mM stock and then diluted using plain medium with 0.1% BSA and 1.8 mM CaCl2 to get the desired concentration. The final concentration of DMSO in the reaction was 0.5% (v/v). Human TRPA1 expressing CHO cells were grown in F-12 DMEM medium with 10% FBS, 1% penicillin-streptomycin solution, and 400 μg/ml of G-418. Rat TRPA1 expressing CHO cells were grown in F-12 DMEM medium with 10% FBS, 1% penicillin-streptomycin solution, and 400 μg/ml of Zeocin. Cells were seeded 24 h prior to the assay in 96 well plates so as to get ˜50,000 cells per well on the day of experiment. Cells were treated with the test compounds for 10 minutes followed by the addition of AITC at a final concentration of 30 μM (for human TRPA1) and/or 10 μM (for rat TRPA1) and 5 μCi/ml ^45Ca^+2 for 3 minutes. Cells were washed and lysed using a buffer containing 1% Triton X-100, 0.1% deoxycholate and 0.1% SDS. Radioactivity in the lysate was measured in a Packard TopCount after addition of liquid scintillant. (Toth et al, Life Sciences (2003) 73, 487-498; McNamara C R et al, Proceedings of the National Academy of Sciences, (2007) 104, 13525-13530).
as §3

T1 sequence (Q6RI86 whole entry): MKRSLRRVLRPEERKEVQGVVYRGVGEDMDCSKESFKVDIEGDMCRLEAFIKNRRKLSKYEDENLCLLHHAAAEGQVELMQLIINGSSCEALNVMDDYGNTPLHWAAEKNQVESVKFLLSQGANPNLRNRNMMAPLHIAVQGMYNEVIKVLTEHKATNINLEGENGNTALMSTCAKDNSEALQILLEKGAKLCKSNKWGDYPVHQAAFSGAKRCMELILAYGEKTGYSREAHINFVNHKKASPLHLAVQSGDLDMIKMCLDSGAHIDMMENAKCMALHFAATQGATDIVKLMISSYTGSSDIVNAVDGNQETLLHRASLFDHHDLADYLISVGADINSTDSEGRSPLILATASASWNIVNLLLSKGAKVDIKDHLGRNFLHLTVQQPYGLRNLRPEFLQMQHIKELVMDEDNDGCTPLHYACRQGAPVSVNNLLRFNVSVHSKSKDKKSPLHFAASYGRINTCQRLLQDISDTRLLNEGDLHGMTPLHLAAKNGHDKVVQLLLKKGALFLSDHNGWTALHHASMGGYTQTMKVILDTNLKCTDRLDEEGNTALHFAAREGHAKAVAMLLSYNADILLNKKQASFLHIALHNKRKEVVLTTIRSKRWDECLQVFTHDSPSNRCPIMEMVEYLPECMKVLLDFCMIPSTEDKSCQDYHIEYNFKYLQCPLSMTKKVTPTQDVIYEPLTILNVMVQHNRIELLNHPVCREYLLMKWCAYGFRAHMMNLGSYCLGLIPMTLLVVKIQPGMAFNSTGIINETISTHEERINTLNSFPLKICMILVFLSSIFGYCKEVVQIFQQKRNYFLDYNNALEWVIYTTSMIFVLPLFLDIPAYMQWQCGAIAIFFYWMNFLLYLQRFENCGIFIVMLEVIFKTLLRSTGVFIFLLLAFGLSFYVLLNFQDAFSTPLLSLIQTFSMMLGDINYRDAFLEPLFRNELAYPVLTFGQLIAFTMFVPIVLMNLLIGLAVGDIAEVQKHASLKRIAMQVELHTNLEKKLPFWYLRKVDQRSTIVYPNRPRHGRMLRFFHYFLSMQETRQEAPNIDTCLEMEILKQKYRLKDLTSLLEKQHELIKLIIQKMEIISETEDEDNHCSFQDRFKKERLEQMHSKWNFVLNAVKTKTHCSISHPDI
T2 sequence (O75762 whole entry): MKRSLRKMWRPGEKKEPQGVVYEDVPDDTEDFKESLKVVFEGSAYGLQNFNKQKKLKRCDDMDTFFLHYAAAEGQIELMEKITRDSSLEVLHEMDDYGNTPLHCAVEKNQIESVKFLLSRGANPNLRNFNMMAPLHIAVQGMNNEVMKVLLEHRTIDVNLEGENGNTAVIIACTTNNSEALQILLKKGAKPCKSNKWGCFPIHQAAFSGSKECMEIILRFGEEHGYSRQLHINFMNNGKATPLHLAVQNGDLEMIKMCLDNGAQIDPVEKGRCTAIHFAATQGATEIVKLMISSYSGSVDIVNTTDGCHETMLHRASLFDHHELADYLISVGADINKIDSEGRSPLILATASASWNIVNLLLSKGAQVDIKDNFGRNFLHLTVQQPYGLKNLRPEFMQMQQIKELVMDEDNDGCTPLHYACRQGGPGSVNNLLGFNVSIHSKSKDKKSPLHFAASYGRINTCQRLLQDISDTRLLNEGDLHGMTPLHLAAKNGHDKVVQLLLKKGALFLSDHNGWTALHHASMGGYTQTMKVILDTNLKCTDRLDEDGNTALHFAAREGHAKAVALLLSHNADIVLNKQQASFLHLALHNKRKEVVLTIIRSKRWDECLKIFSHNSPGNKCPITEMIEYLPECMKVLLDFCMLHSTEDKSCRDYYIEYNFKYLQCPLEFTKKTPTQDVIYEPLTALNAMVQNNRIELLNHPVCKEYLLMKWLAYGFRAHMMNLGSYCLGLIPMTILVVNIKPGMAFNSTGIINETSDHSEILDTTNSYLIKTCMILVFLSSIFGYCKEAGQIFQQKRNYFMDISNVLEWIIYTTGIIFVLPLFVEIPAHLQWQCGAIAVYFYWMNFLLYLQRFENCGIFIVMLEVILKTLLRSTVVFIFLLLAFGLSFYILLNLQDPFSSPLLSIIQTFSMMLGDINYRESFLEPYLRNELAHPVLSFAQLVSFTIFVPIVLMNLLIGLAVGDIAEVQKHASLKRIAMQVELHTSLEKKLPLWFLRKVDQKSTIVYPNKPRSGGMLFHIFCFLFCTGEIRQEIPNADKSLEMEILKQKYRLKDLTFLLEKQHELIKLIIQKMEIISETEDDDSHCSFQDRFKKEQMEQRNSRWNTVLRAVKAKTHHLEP

Cn1c(=O)c2c(CC(=O)Nc3nc(-c4ccc(F)c(C(F)(F)F)c4)cs3)coc2n(C)c1=O [Example 15, N1-{4-[4-Fluoro-3-(trifluoromethyl)phenyl]-1,3-thiazol-2-yl}-2-(1,3-dimethyl-2,4-dioxo-1,2,3,4-tetrahydrofuro[2,3-d]pyrimidin-5-yl)acetamide]
inhibition at 10 µM [1]: 99% | inhibition at 1 µM [1]: 100% | IC50 [1]: < 50 nM | inhibition at 1 µM [2]: 99.9% | inhibition at 10 µM [2]: 99.8% | IC50 [2]: < 50 nM

Cn1c(=O)c2c(CC(=O)Nc3nc(-c4ccc(F)c(OC(F)(F)F)c4)cs3)coc2n(C)c1=O [Example 16, N1-{4-[4-Fluoro-3-(trifluoromethoxy)phenyl]-1,3-thiazol-2-yl}-2-(1,3-dimethyl-2,4-dioxo-1,2,3,4-tetrahydrofuro[2,3-d]pyrimidin-5-yl)acetamide]
inhibition at 10 µM [1]: 98.6% | inhibition at 1 µM [1]: 100% | IC50 [1]: < 50 nM | inhibition at 1 µM [2]: 98.5% | inhibition at 10 µM [2]: 99.2% | IC50 [2]: < 50 nM

Cn1c(=O)c2c(CC(=O)Nc3nc(-c4ccc(OC(F)(F)F)c(F)c4)cs3)coc2n(C)c1=O [Example 17, N1-{4-[3-Fluoro-4-(trifluoromethoxy)phenyl]-1,3-thiazol-2-yl}-2-(1,3-dimethyl-2,4-dioxo-1,2,3,4-tetrahydrofuro[2,3-d]pyrimidin-5-yl)acetamide]
inhibition at 10 µM [1]: 99.8% | inhibition at 1 µM [1]: 97.7% | IC50 [1]: 50 to 100 nM | inhibition at 1 µM [2]: 99.9% | inhibition at 10 µM [2]: 100% | IC50 [2]: < 50 nM

Cn1c(=O)c2c(CC(=O)Nc3nc(-c4ccc(Cl)c(C(F)(F)F)c4)cs3)coc2n(C)c1=O [Example 18, N1-{4-[4-Chloro-3-(trifluoromethyl)phenyl]-1,3-thiazol-2-yl}-2-(1,3-dimethyl-2,4-dioxo-1,2,3,4-tetrahydrofuro[2,3-d]pyrimidin-5-yl)acetamide]
inhibition at 10 µM [1]: 94.1% | inhibition at 1 µM [1]: 99.9% | IC50 [1]: 50 to 100 nM | inhibition at 1 µM [2]: 99.9% | inhibition at 10 µM [2]: 100% | IC50 [2]: < 50 nM

Cn1c(=O)c2c(CC(=O)Nc3nc(-c4ccc(Cl)c(OC(F)(F)F)c4)cs3)coc2n(C)c1=O [Example 19, N1-{4-[4-Chloro-3-(trifluoromethoxy)phenyl]-1,3-thiazol-2-yl]-2-(1,3-dimethyl-2,4-dioxo-1,2,3,4-tetrahydrofuro[2,3-d]pyrimidin-5-yl)acetamide]
inhibition at 10 µM [1]: 98.2% | inhibition at 1 µM [1]: 98.9% | IC50 [1]: 50 to 100 nM | inhibition at 1 µM [2]: 99.9% | inhibition at 10 µM [2]: 100% | IC50 [2]: < 50 nM

Cn1c(=O)c2c(CC(=O)Nc3nc(-c4cccc(C(F)(F)F)c4F)cs3)coc2n(C)c1=O [Example 20, N1-{4-[2-Fluoro-3-(trifluoromethyl)phenyl]-1,3-thiazol-2-yl}-2-(1,3-dimethyl-2,4-dioxo-1,2,3,4-tetrahydrofuro[2,3-d]pyrimidin-5-yl)acetamide]
inhibition at 10 µM [1]: 99.8% | inhibition at 1 µM [1]: 96.8% | IC50 [1]: < 50 nM | inhibition at 1 µM [2]: 98.5% | inhibition at 10 µM [2]: 97.5% | IC50 [2]: < 50 nM

Cn1c(=O)c2c(CC(=O)Nc3nc(-c4cc(F)cc(C(F)(F)F)c4)cs3)coc2n(C)c1=O [Example 21, N1-{4-[3-Fluoro-5-(trifluoromethyl)phenyl]-1,3-thiazol-2-yl}-2-(1,3-dimethyl-2,4-dioxo-1,2,3,4-tetrahydrofuro[2,3-d]pyrimidin-5-yl)acetamide]
inhibition at 10 µM [1]: 99.9% | inhibition at 1 µM [1]: 98.9% | IC50 [1]: < 50 nM | inhibition at 1 µM [2]: 99.8% | inhibition at 10 µM [2]: 99.8% | IC50 [2]: < 50 nM

Cn1c(=O)c2c(CC(=O)Nc3nc(-c4ccc(C(F)(F)F)cc4F)cs3)coc2n(C)c1=O [Example 22, N1-{4-[2-Fluoro-4-(trifluoromethyl)phenyl]-1,3-thiazol-2-yl}-2-(1,3-dimethyl-2,4-dioxo-1,2,3,4-tetrahydrofuro[2,3-d]pyrimidin-5-yl)acetamide]
inhibition at 10 µM [1]: 100% | inhibition at 1 µM [1]: 100% | inhibition at 1 µM [2]: 99.3% | inhibition at 10 µM [2]: 98.5% | IC50 [2]: < 50 nM

Cn1c(=O)c2c(CC(=O)Nc3nc(-c4ccc(OC(F)F)c(F)c4)cs3)coc2n(C)c1=O [Example 23, N1-[4-(3-Fluoro-4-difluoromethoxyphenyl)-1,3-thiazol-2-yl]-2-(1,3-dimethyl-2,4-dioxo-1,2,3,4-tetrahydrofuro[2,3-d]pyrimidin-5-yl)acetamide]
inhibition at 10 µM [1]: 95.5% | inhibition at 1 µM [1]: 92.6% | IC50 [1]: > 100 nM | inhibition at 1 µM [2]: 96.3% | inhibition at 10 µM [2]: 99% | IC50 [2]: < 50 nM

Cn1c(=O)c2c(CC(=O)Nc3nc(-c4ccc(OC(F)F)c(Cl)c4)cs3)coc2n(C)c1=O [Example 24, N1-[4-(3-Chloro-4-difluoromethoxyphenyl)-1,3-thiazol-2-yl]-2-(1,3-dimethyl-2,4-dioxo-1,2,3,4-tetrahydrofuro[2,3-d]pyrimidin-5-yl)acetamide]
inhibition at 10 µM [1]: 99.6% | inhibition at 1 µM [1]: 100% | IC50 [1]: > 100 nM | inhibition at 1 µM [2]: 97.4% | inhibition at 10 µM [2]: 99.8% | IC50 [2]: < 50 nM

Cn1c(=O)c2c(CC(=O)Nc3nc(-c4ccc(OCC(C)(C)C)c(F)c4)cs3)coc2n(C)c1=O [Example 26, N1-{4-[4-(2,2-Dimethylpropoxy)-3-fluorophenyl]-1,3-thiazol-2-yl}-2-(1,3-dimethyl-2,4-dioxo-1,2,3,4-tetrahydrofuro[2,3-d]pyrimidin-5-yl)acetamide]
inhibition at 10 µM [1]: 99.9% | inhibition at 1 µM [1]: 98.6% | inhibition at 1 µM [2]: 97.6% | inhibition at 10 µM [2]: 99.3% | IC50 [2]: < 50 nM

Cn1c(=O)c2c(CC(=O)Nc3nc(-c4ccc(OCC(C)(C)C)c(Cl)c4)cs3)coc2n(C)c1=O [Example 27, N1-{4-[3-Chloro-4-(2,2-dimethylpropoxy)phenyl]-1,3-thiazol-2-yl}-2-(1,3-dimethyl-2,4-dioxo-1,2,3,4-tetrahydrofuro[2,3-d]pyrimidin-5-yl)acetamide]
inhibition at 10 µM [1]: 100% | inhibition at 1 µM [1]: 93.1% | inhibition at 1 µM [2]: 97.1% | inhibition at 10 µM [2]: 99.2% | IC50 [2]: > 100 nM

Cn1c(=O)c2c(CC(=O)Nc3nc(-c4ccc(OCC(C)(C)C)c(Br)c4)cs3)coc2n(C)c1=O [Example 28, N1-{4-[3-Bromo-4-(2,2-dimethylpropoxy)phenyl]-1,3-thiazol-2-yl}-2-(1,3-dimethyl-2,4-dioxo-1,2,3,4-tetrahydrofuro[2,3-d]pyrimidin-5-yl)acetamide]
inhibition at 10 µM [1]: 100% | inhibition at 1 µM [1]: 98.5% | inhibition at 1 µM [2]: 96.7% | inhibition at 10 µM [2]: 99.3% | IC50 [2]: > 100 nM

Cn1c(=O)c2c(CC(=O)Nc3nc(-c4ccc(OCC(F)(F)F)c(F)c4)cs3)coc2n(C)c1=O [Example 30, N1-{4-[3-Fluoro-4-(2,2,2-trifluoroethoxy)phenyl]-1,3-thiazol-2-yl}2-(1,3-dimethyl-2,4-dioxo-1,2,3,4-tetrahydrofuro[2,3-d]pyrimidin-5-yl)acetamide]
inhibition at 10 µM [1]: 100% | inhibition at 1 µM [1]: 97.1% | IC50 [1]: > 100 nM | inhibition at 1 µM [2]: 97.4% | inhibition at 10 µM [2]: 100% | IC50 [2]: < 50 nM
